Patent US20050170485A1, “Culture having phenol oxidase-like activity” (priority 2002, published 2005)

Key:
Format in all cases: biochemical
[1] = system: culture of Flammulina velutipes strain IFO 30601; assay: Substrate specificity of the culture (phenol oxidase-like activity, Table 1); conditions: pH 7.0; determined wavelength per substrate (Table 1)
[2] = system: culture of Flammulina velutipes strain IFO 30601; assay: Oxidative coupling reaction with 4-aminoantipyrine by the culture; conditions: for activity of the culture for the substrate in words, oxidative coupling reaction: pH 7.0; for Specific Activity, Culture (oxidative coupling with 4-aminoantipyrine): reaction pH 7.0, 25° C., substrate 2.0 mM
Experimental: Next, the oxidative coupling reaction of the culture obtained in (2) in Example 1 mentioned above was determined by using color development as an index by the oxidative condensation of the substrate (hydrogen donor) with 4-aminoantipyrine, catalyzed by the culture of the present invention.
As the hydrogen donors, there were used phenolic compounds (phenol, 2-methoxyphenol, 2,6-dimethoxyphenol, catechol, resorcinol, hydroquinone, pyrogallol, gallic acid, propyl gallate, 1-naphthol, catechin), aminophenolic compounds (o-aminophenol, m-aminophenol, p-aminophenol), diaminophenolic compounds (o-phenylenediamine, m-phenylenediamine, p-phenylenediamine), and heterocyclic compounds (5-hydroxyindole, 2,6-diaminopyridine).
The above-mentioned culture solution was added to a reaction system containing 4-aminoantipyrine and an optional hydrogen donor. Thereafter, the activity of the culture of the present invention was assayed by determining a change in absorbance at 490 nm for the phenolic compound, the diaminophenolic compound and the heterocyclic compound, or determining a change in absorbance at 450 nm for the aminophenolic compound. As to a substrate hardly soluble in water, there was used one obtained by dissolving the substrate in a small amount of dimethyl sulfoxide and diluting the resulting solution with deionized water to a desired concentration. In Table 4, DMSO is an abbreviation for dimethyl sulfoxide.
(§1) Concretely, 190 μl of 105.3 mM phosphate buffer (pH 7.0) containing 0.4 μmol of a substrate and 4.0 μmol of 4-aminoantipyrine was pre-incubated in wells of a 96-well microplate [manufactured by Corning, Costor (registered trademark) 3368] at 25° C. for 1 minute. Next, 10 μl of the above-mentioned culture solution was added to the resulting mixture, and thereafter, the mixture was incubated for 1 hour. A change in absorbance at 490 nm or 450 nm was determined for the resulting product. One unit (U) of the activity regarding the oxidative coupling reaction was defined as an amount for increasing the absorbance by 1 per one minute.

[3] = molecular target: T1, bilirubin oxidase from the strain of the genus Myrothecium (Albifimbria verrucaria, UniProt Q12737); assay: Oxidative coupling reaction with 4-aminoantipyrine by bilirubin oxidase (comparison); conditions: reaction pH 8.0, substrate 2.0 mM
T1 sequence (Q12737 39-572): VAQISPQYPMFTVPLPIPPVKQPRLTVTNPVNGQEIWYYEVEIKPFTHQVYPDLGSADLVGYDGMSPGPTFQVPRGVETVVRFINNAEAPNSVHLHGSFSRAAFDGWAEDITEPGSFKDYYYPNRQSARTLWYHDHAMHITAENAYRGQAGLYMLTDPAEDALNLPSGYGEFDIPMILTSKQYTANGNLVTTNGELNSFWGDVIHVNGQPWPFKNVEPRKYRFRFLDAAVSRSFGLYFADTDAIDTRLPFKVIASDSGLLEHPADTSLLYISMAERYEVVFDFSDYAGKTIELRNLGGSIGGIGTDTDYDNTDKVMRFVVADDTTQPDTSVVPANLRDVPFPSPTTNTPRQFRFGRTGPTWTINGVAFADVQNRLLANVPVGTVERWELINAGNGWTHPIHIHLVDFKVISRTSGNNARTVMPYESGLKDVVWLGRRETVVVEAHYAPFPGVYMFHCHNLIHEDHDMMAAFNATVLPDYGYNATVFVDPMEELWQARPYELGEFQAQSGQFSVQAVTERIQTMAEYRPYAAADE
Experimental: as §1
In addition, for the comparison, the examination was made in the same manner for bilirubin oxidase from the strain of the genus Myrothecium except that the above-mentioned buffer was replaced with 105.3 mM Tris-HCl buffer (pH 8.0).

[4] = system: culture of Flammulina velutipes strain IFO 30601; assay: Direct oxidation reaction by the culture; conditions: for activity of the culture for the substrate in words, direct oxidation reaction: pH 7.0; for activity of the culture compared with bilirubin oxidase from the genus Myrothecium, direct oxidation / activity of the culture compared with laccase from Japanese lacquer, direct oxidation: pH 7.0, relative activities of Table 7; for Relative Activity, Culture (direct oxidation): reaction pH 7.0, 2-chloro 1,4-phenylenediamine = 100
Experimental: Further, the direct oxidation reaction of the culture obtained in the above-mentioned example was determined by using color development due to oxidative polymerization of a substrate generated by the direct action of the culture of the present invention on the substrate as an index.
As the substrates, there were used diaminophenolic compounds (2-chloro 1,4-phenylenediamine, p-phenylenediamine, 2,5-diaminotoluene, N-phenyl-p-phenylenediamine, toluylene-3,4-diamine, m-phenylenediamine), aminophenolic compounds (o-aminophenol, m-aminophenol, 5-amino-o-cresol, p-aminophenol, p-methylaminophenol), and phenolic compounds (2,6-dimethoxyphenol, catechol, resorcinol, hydroquinone, pyrogallol, gallic acid, propyl gallate, 1-naphthol, […], 2,3,4-trihydroxybenzophenone, 2,3,4,4-tetrahydroxybenzophenone). As to a substrate hardly soluble in water, there was used one obtained by dissolving the substrate in a small amount of dimethyl sulfoxide and diluting the resulting solution with deionized distilled water to a desired concentration. In Table 6, %” indicates volume/volume %.
(§2) Concretely, 180 μl of 0.89 mM sodium phosphate buffer (pH 7.0) containing […] substrate was pre-incubated in wells of a 96-well microplate [manufactured by Corning, Costor (registered trademark) 3368] at 25° C. for 1 minute. Next, 20 μl of the above-mentioned culture solution was added to the resulting mixture. A change in absorbance at 490 nm, 450 nm or 405 nm was determined for the resulting product, depending on the substrate. Here, 1 U (unit) of the activity regarding the direct oxidative reaction was defined as an amount for increasing the absorbance by 1 per one minute.

[5] = system: laccase from Japanese lacquer; assay: Direct oxidation reaction by laccase (comparison); conditions: reaction pH 7.0; 2-chloro 1,4-phenylenediamine = 100
Experimental: Next, 20 μl of the above-mentioned culture solution was added to the resulting mixture. A change in absorbance at 490 nm, 450 nm or 405 nm was determined for the resulting product, depending on the substrate. Here, 1 U (unit) of the activity regarding the direct oxidative reaction was defined as an amount for increasing the absorbance by 1 per one minute.
(§3) In addition, for the comparison, the substrate specificities at pH 7.0 for laccase from Japanese lacquer and bilirubin oxidase from the strain belonging to the genus Myrothecium were also examined in the same manner.

[6] = molecular target: T2, bilirubin oxidase from the strain belonging to the genus Myrothecium (Albifimbria verrucaria, UniProt Q12737); assay: Direct oxidation reaction by bilirubin oxidase (comparison); parameters: concentration or dose not given beside the values; conditions: reaction pH 7.0; 2-chloro 1,4-phenylenediamine = 100
T2 sequence (Q12737 39-572): T1 sequence (Q12737 39-572)
Experimental: as §2, §3
The relative activity (%) for each substrate is shown in Table 7, in which the measured value for a case where a representative chemical dye 2-chloro 1,4-phenylenediamine was used as a substrate is 100.

Structure (SMILES)	U (activity of the culture on the substrate) [1] [U]	activity of the culture for the substrate in words, oxidative coupling reaction [2]	Specific Activity, Culture (oxidative coupling with 4-aminoantipyrine) [2] [U/mg Protein]	Specific Activity, Bilirubin Oxidase from Strain Belonging to Genus Myrothecium (oxidative coupling with 4-aminoantipyrine) [3] [U/mg Protein]	activity of the culture for the substrate in words, direct oxidation reaction [4]	activity of the culture compared with bilirubin oxidase from the genus Myrothecium, direct oxidation [4]	activity of the culture compared with laccase from Japanese lacquer, direct oxidation [4]	Relative Activity, Culture (direct oxidation) [4] [%]	Relative Activity, Laccase from Japanese Lacquer (direct oxidation) [5] [%]	Relative Activity, Bilirubin Oxidase from Strain Belonging to Genus Myrothecium (direct oxidation) [6] [%]
COc1cccc(OC)c1O [2,6-Dimethoxyphenol]	0.830	especially high activity	18.1	12.0	high activity	even higher activity	even higher activity	250	21	69
COc1ccccc1O [2-Methoxyphenol]	0.117	especially high activity	14.5	2.5	–	–	–	–	–	–
Oc1cccc2[nH]ccc12 [4-Hydroxyindole]	0.078	–	–	–	–	–	–	–	–	–
CCn1c(=NN=c2sc3cc(S(=O)(=O)O)ccc3n2CC)sc2cc(S(=O)(=O)O)ccc21 [ABTS]	0.683	–	–	–	–	–	–	–	–	–
Oc1ccccc1O [Catechol]	0.029	especially high activity	23.3	16.0	–	higher activity	even higher activity	21	2	5
N[C@@H](Cc1ccc(O)cc1)C(=O)O [L-Tyrosine]	0.018	–	–	–	–	–	–	–	–	–
CCCOC(=O)c1cc(O)c(O)c(O)c1 [Propyl Gallate]	–	–	−0.2	−0.1	–	higher activity	higher activity	34	14	85
Oc1cccc(O)c1O [Pyrogallol]	–	–	3.2	−27.6	high activity	–	–	184	187	104
Oc1cccc(O)c1 [Resorcinol]	–	–	5.7	25.6	–	–	higher activity	75	25	91
COc1cc(/C=N/N=C/c2cc(OC)c(O)c(OC)c2)cc(OC)c1O [Syringaldazine]	0.141	–	–	–	–	–	–	–	–	–
Nc1cccc(O)c1 [m-Aminophenol]	–	–	8.8	1.3	–	even higher activity	even higher activity	40	3	3
Nc1cccc(N)c1 [m-Phenylenediamine]	–	–	29.7	1.7	–	–	even higher activity	26	4	14
Nc1ccccc1O [o-Aminophenol]	0.262	especially high activity	22.4	15.1	especially high activity	even higher activity	even higher activity	650	103	86
Nc1ccc(O)cc1 [p-Aminophenol]	0.072	especially high activity	12.7	7.0	especially high activity	higher activity	higher activity	235	109	70
